In ChEMBL document CHEMBL3046411, “Synthesis and antioxidant studies of novel N-substituted benzyl/phenyl-2-(3,4-dimethyl-5,5-dioxidopyrazolo[4,3-c][1,2]benzothiazin-2(4H)-yl)acetamides” (Med Chem Res, 2013):

How the values were obtained:
[1] = Antioxidant activity assessed as superoxide anion radical scavenging activity at 1 mM; assay type: functional
[2] = test system: Radical scavenging activity; assay: Antioxidant activity assessed as DPPH radical scavenging activity at 0.5 mM after 30 min; assay type: functional

Cc1c2c(nn1CC(=O)Nc1ccc(F)cc1)-c1ccccc1S(=O)(=O)N2C
Activity [1]: 44.1%
Activity [2]: 22.1%

COc1ccccc1NC(=O)Cn1nc2c(c1C)N(C)S(=O)(=O)c1ccccc1-2
Activity [1]: 53.8%
Activity [2]: 26.9%

COc1ccc(NC(=O)Cn2nc3c(c2C)N(C)S(=O)(=O)c2ccccc2-3)c(OC)c1
Activity [1]: 78.3%
Activity [2]: 39.8%

Cc1c2c(nn1CC(=O)NCc1ccccc1Br)-c1ccccc1S(=O)(=O)N2C
Activity [1]: 64%
Activity [2]: 21.1%

Cc1ccc(CNC(=O)Cn2nc3c(c2C)N(C)S(=O)(=O)c2ccccc2-3)cc1
Activity [1]: 57.8%
Activity [2]: 17.9%

Cc1c2c(nn1CC(=O)Nc1cccc(Br)c1)-c1ccccc1S(=O)(=O)N2C
Activity [1]: 47.1%
Activity [2]: 26.1%

COc1ccc(CNC(=O)Cn2nc3c(c2C)N(C)S(=O)(=O)c2ccccc2-3)cc1
Activity [1]: 33.1%
Activity [2]: 23.7%

COc1ccccc1CNC(=O)Cn1nc2c(c1C)N(C)S(=O)(=O)c1ccccc1-2
Activity [1]: 38.8%
Activity [2]: 25.6%

Cc1c2c(nn1CC(=O)Nc1ccccc1Cl)-c1ccccc1S(=O)(=O)N2C
Activity [1]: 61%
Activity [2]: 21.8%

Cc1c2c(nn1CC(=O)Nc1ccccc1F)-c1ccccc1S(=O)(=O)N2C
Activity [1]: 47.7%
Activity [2]: 23.1%

Cc1c2c(nn1CC(=O)Nc1ccccc1)-c1ccccc1S(=O)(=O)N2C
Activity [1]: 28.6%
Activity [2]: 18.3%

Cc1c2c(nn1CC(=O)Nc1ccc(Cl)cc1)-c1ccccc1S(=O)(=O)N2C
Activity [1]: 55.6%
Activity [2]: 25.4%

Cc1c2c(nn1CC(=O)Nc1ccccc1Br)-c1ccccc1S(=O)(=O)N2C
Activity [1]: 79.1%
Activity [2]: 27.6%

CCCOC(=O)c1cc(O)c(O)c(O)c1
Activity [1]: 90.8%

Cc1c2c(nn1CC(=O)NCc1ccc(Cl)cc1)-c1ccccc1S(=O)(=O)N2C
Activity [1]: 47.2%
Activity [2]: 16.7%

COc1ccc(CNC(=O)Cn2nc3c(c2C)N(C)S(=O)(=O)c2ccccc2-3)c(OC)c1
Activity [1]: 58.3%
Activity [2]: 27.3%

Cc1c2c(nn1CC(=O)NCc1ccccc1Cl)-c1ccccc1S(=O)(=O)N2C
Activity [1]: 52.5%
Activity [2]: 17.1%

COc1ccc(O)c(C(C)(C)C)c1.COc1ccc(O)cc1C(C)(C)C
Activity [2]: 92.6%

COc1cccc(NC(=O)Cn2nc3c(c2C)N(C)S(=O)(=O)c2ccccc2-3)c1
Activity [1]: 47.4%
Activity [2]: 20.2%

Cc1c2c(nn1CC(=O)NCc1ccc(F)cc1)-c1ccccc1S(=O)(=O)N2C
Activity [1]: 42.3%
Activity [2]: 15.8%

Cc1c2c(nn1CC(=O)NCc1ccccc1F)-c1ccccc1S(=O)(=O)N2C
Activity [1]: 48.5%
Activity [2]: 20.2%

Cc1ccccc1CNC(=O)Cn1nc2c(c1C)N(C)S(=O)(=O)c1ccccc1-2
Activity [1]: 81.5%
Activity [2]: 15.2%

Cc1c2c(nn1CC(=O)NCc1cccc(Br)c1)-c1ccccc1S(=O)(=O)N2C
Activity [1]: 32.5%
Activity [2]: 14.1%

COc1cccc(CNC(=O)Cn2nc3c(c2C)N(C)S(=O)(=O)c2ccccc2-3)c1
Activity [1]: 25.9%
Activity [2]: 16.2%
